Test systems include A498 renal; HCT-15 colon; MOLT-4 leukemia; UACC-257 melanoma; OVCAR-8 ovarian; RXF 393 renal; KM12 colon; SNB-75 CNS; LOX IMVI melanoma; OVCAR-5 ovarian.
Holding throughout (assay): growth of human tumour cells (NCI), 48 h

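Interpolation was linear, between the two tested concentrations surrounding the appropriate level; five concentrations were tested over 48 hours in 96-well plates. GI50 = concentration required for 50% inhibition of growth. TGI denotes the concentration required for complete inhibition of growth.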

Consider `CC1(C)CCOC(Sc2ccccc2)C1` (stereo not given), for which the TGI in the experiment with A498 renal, with HCT-15 colon, in the experiment with MOLT-4 leukemia, in the experiment on UACC-257 melanoma, in the experiment on OVCAR-8 ovarian and with RXF 393 renal was over 100 µM in each case. Further, the TGI in the experiment on KM12 colon, in the experiment on SNB-75 CNS and with LOX IMVI melanoma was over 100 µM throughout.

As to `COc1cc2c(cc1OCCCN1CCN(CCCOc3cc4c(cc3OC)C(=O)N3C[C@H](F)C[C@H]3C=N4)CC1)N=C[C@@H]1C[C@@H](F)CN1C2=O`, the GI50 was 0.198 µM with OVCAR-5 ovarian; 0.0947 µM with A498 renal; 2.15 µM with HCT-15 colon; under 0.018 µM in the experiment on MOLT-4 leukemia; 0.127 µM in the experiment with UACC-257 melanoma; 0.134 µM in the experiment on OVCAR-8 ovarian. In addition, the GI50 was 0.18 µM with KM12 colon, 0.0338 µM with SNB-75 CNS and 0.0176 µM in the experiment with LOX IMVI melanoma. Further, the TGI with OVCAR-5 ovarian amounted to 3.24 µM; in the experiment with A498 renal, 0.38 µM; with HCT-15 colon, 12.9 µM; in the experiment on MOLT-4 leukemia it was 1.68 µM; in the experiment on UACC-257 melanoma, 0.363 µM; with OVCAR-8 ovarian, 16.2 µM. Also, the TGI in the experiment on SNB-75 CNS was 0.594 µM; in the experiment on LOX IMVI melanoma it was 0.145 µM.

`COc1cc(/C=C/C(=O)c2cccc(-n3cc(-c4ccccc4)[nH]c3=O)c2)ccc1O`: the GI50 is 6.25 µM in the experiment with OVCAR-5 ovarian; 1.68 µM in the experiment on A498 renal; 2.9 µM in the experiment on HCT-15 colon; 2.49 µM with MOLT-4 leukemia; 4.88 µM with UACC-257 melanoma; 3.35 µM in the experiment with OVCAR-8 ovarian. Further, the GI50 is 1.78 µM in the experiment with RXF 393 renal, 2.02 µM in the experiment with KM12 colon, 3.21 µM with SNB-75 CNS and 2.5 µM in the experiment with LOX IMVI melanoma. Further, the TGI with OVCAR-5 ovarian was 14.1 µM; with A498 renal, 3.87 µM; with HCT-15 colon, 14.3 µM; with MOLT-4 leukemia, 6.28 µM; with UACC-257 melanoma, 17.1 µM; in the experiment with OVCAR-8 ovarian it was 17.8 µM. Moreover, the TGI in the experiment with RXF 393 renal is 4.12 µM; in the experiment on KM12 colon it was 4.68 µM; in the experiment on SNB-75 CNS it was 12.3 µM; with LOX IMVI melanoma it was 9.16 µM.

On to `CC[C@@]1(O)C(=O)OCc2c1cc1n(c2=O)Cc2cc3c(N)c(OC)ccc3nc2-1`, for which the GI50 is 0.0543 µM with OVCAR-5 ovarian; 0.156 µM in the experiment with A498 renal; 0.283 µM with HCT-15 colon; under 0.01 µM with MOLT-4 leukemia; 0.219 µM in the experiment with UACC-257 melanoma; 0.0708 µM in the experiment on RXF 393 renal. Moreover, the GI50 in the experiment with KM12 colon is 0.292 µM; in the experiment with SNB-75 CNS, 0.0339 µM; with LOX IMVI melanoma, 0.0216 µM. For the same molecule, the TGI turned out to be 0.842 µM in the experiment with OVCAR-5 ovarian; 0.726 µM in the experiment with A498 renal; 3.52 µM in the experiment on HCT-15 colon; 0.0711 µM with MOLT-4 leukemia; 2.15 µM in the experiment with UACC-257 melanoma; 0.426 µM in the experiment on RXF 393 renal. Besides, the TGI in the experiment with KM12 colon turned out to be 2.24 µM; in the experiment with SNB-75 CNS, 0.265 µM; with LOX IMVI melanoma, 0.151 µM.

In the case of `Nc1ncnc2c1ncn2C1(CO)OC(CO)C(O)C1O` (stereo not given), the TGI in the experiment with OVCAR-5 ovarian, in the experiment with A498 renal, in the experiment on HCT-15 colon, in the experiment on MOLT-4 leukemia, in the experiment with UACC-257 melanoma and in the experiment with RXF 393 renal was over 100 µM throughout. Besides, the TGI with KM12 colon, with SNB-75 CNS and in the experiment with LOX IMVI melanoma was over 100 µM throughout.

Turning to `O=C1CC2=CCCC2O1` (stereo not given), the TGI with A498 renal, in the experiment with HCT-15 colon, in the experiment on MOLT-4 leukemia, in the experiment with UACC-257 melanoma, in the experiment on OVCAR-8 ovarian and in the experiment on RXF 393 renal was over 100 µM each time. For the same molecule, the TGI in the experiment with KM12 colon, in the experiment on SNB-75 CNS and in the experiment on LOX IMVI melanoma was over 100 µM throughout.

Take `Cc1ccc(C)c(NC(=O)C(=O)C(C2C(C)CC(=O)C2CC(=O)O)[N+](=O)[O-])c1` (stereo not given): the TGI in the experiment on OVCAR-5 ovarian, with A498 renal, in the experiment with HCT-15 colon, in the experiment on MOLT-4 leukemia, with UACC-257 melanoma and in the experiment on RXF 393 renal was over 100 µM each time. Besides, the TGI with KM12 colon, with SNB-75 CNS and with LOX IMVI melanoma was over 100 µM throughout.

Regarding `Cc1nc2sc(C(=O)Nc3cccc4c3OCCO4)c(N)c2cc1C(C)O` (stereo not given), the GI50 was 43.2 µM in the experiment with OVCAR-5 ovarian; 2.16 µM in the experiment with A498 renal; 3.26 µM with HCT-15 colon; 4.97 µM in the experiment with MOLT-4 leukemia; 6.48 µM with OVCAR-8 ovarian; 2.92 µM with RXF 393 renal. The GI50 in the experiment on KM12 colon is 3.85 µM; in the experiment on SNB-75 CNS it was 1.81 µM; with LOX IMVI melanoma, 5.26 µM. In addition, the TGI is over 100 µM with OVCAR-5 ovarian; 9.05 µM with A498 renal; over 100 µM in the experiment with HCT-15 colon; over 100 µM with MOLT-4 leukemia; over 100 µM in the experiment with OVCAR-8 ovarian; over 100 µM in the experiment on RXF 393 renal. Further, the TGI with KM12 colon, in the experiment on SNB-75 CNS and in the experiment with LOX IMVI melanoma was over 100 µM each time.

With `COc1ccc(/C(=N/O)c2cc(F)c(F)c(OC)c2F)cc1O`, the GI50 in the experiment with A498 renal was 3.79 µM; with HCT-15 colon, 0.42 µM; in the experiment on MOLT-4 leukemia, 0.43 µM; with OVCAR-8 ovarian it was 3.1 µM; with KM12 colon, 0.396 µM; in the experiment on SNB-75 CNS, 0.309 µM. The GI50 in the experiment on LOX IMVI melanoma is 0.605 µM. For the same molecule, the TGI is over 100 µM with A498 renal; over 100 µM in the experiment on HCT-15 colon; 30 µM in the experiment with MOLT-4 leukemia; over 100 µM in the experiment on OVCAR-8 ovarian; over 100 µM in the experiment on KM12 colon; over 100 µM with SNB-75 CNS. In the experiment with LOX IMVI melanoma, the TGI was over 100 µM.

For the molecule `C=CCN=C1NC(=O)C(CC(=O)Nc2ccc([N+](=O)[O-])cc2[N+](=O)[O-])S1` (stereo not given), the TGI in the experiment with OVCAR-5 ovarian, with A498 renal, in the experiment on HCT-15 colon, in the experiment on MOLT-4 leukemia, in the experiment with UACC-257 melanoma and in the experiment on OVCAR-8 ovarian was over 100 µM throughout. Also, the TGI in the experiment on RXF 393 renal, in the experiment with KM12 colon and with SNB-75 CNS was over 100 µM each time.

Take `COC(=O)N1C=CC2=C(C)C3Nc4ccccc4C3C(C)=C2C1` (stereo not given): the TGI is over 100 µM with OVCAR-5 ovarian; over 100 µM with A498 renal; 33.6 µM with HCT-15 colon; 12.3 µM in the experiment on MOLT-4 leukemia; 14.3 µM with UACC-257 melanoma; 7.5 µM with OVCAR-8 ovarian. Also, the TGI with SNB-75 CNS came to 9.54 µM; with LOX IMVI melanoma, 20.1 µM.

These data come from PubChem BioAssay (NCI).
